# Conditions: in n-pentanol, 303.15 K
row,Compound,solubility (mole fraction)
1,O=C(/C=C/c1cn(-c2ccccc2)nc1-c1cccc([N+](=O)[O-])c1)c1nc2ccccc2[nH]1,0.000326
2,O=C(/C=C/c1cn(-c2ccccc2)nc1-c1ccccc1)c1nc2ccccc2[nH]1,0.000332

# Same assay, conditions: in n-pentanol, 308.15 K
row,solubility (mole fraction),Compound
1,0.000312,COc1cccc(-c2nn(-c3ccccc3)cc2/C=C/C(=O)c2nc3ccccc3[nH]2)c1
2,0.000304,O=C(/C=C/c1cn(-c2ccccc2)nc1-c1ccc(Cl)cc1)c1nc2ccccc2[nH]1
3,0.000448,O=C(/C=C/c1cn(-c2ccccc2)nc1-c1ccccc1Cl)c1nc2ccccc2[nH]1
4,0.000406,O=C(/C=C/c1cn(-c2ccccc2)nc1-c1ccccc1)c1nc2ccccc2[nH]1

# Continued, compound first:
row,Compound,solubility (mole fraction)
1,COc1ccc(-c2nn(-c3ccccc3)cc2/C=C/C(=O)c2nc3ccccc3[nH]2)cc1,0.00168
2,COc1ccc(-c2nn(-c3ccccc3)cc2/C=C/C(=O)c2nc3ccccc3[nH]2)cc1OC,0.000354
3,O=C(/C=C/c1cn(-c2ccccc2)nc1-c1cccc([N+](=O)[O-])c1)c1nc2ccccc2[nH]1,0.000368

# Same assay, conditions: in n-pentanol, 313.15 K
row,solubility (mole fraction),Compound
1,0.000381,COc1cccc(-c2nn(-c3ccccc3)cc2/C=C/C(=O)c2nc3ccccc3[nH]2)c1
2,0.000354,O=C(/C=C/c1cn(-c2ccccc2)nc1-c1ccc(Cl)cc1)c1nc2ccccc2[nH]1
3,0.00051,O=C(/C=C/c1cn(-c2ccccc2)nc1-c1ccccc1Cl)c1nc2ccccc2[nH]1
4,0.000475,O=C(/C=C/c1cn(-c2ccccc2)nc1-c1ccccc1)c1nc2ccccc2[nH]1

# Second part, the compound before the results:
row,Compound,solubility (mole fraction)
1,COc1ccc(-c2nn(-c3ccccc3)cc2/C=C/C(=O)c2nc3ccccc3[nH]2)cc1,0.00174
2,COc1ccc(-c2nn(-c3ccccc3)cc2/C=C/C(=O)c2nc3ccccc3[nH]2)cc1OC,0.000375
3,O=C(/C=C/c1cn(-c2ccccc2)nc1-c1cccc([N+](=O)[O-])c1)c1nc2ccccc2[nH]1,0.000424

# Same assay, conditions: in n-pentanol, 318.15 K
row,solubility (mole fraction),Compound
1,0.000427,COc1cccc(-c2nn(-c3ccccc3)cc2/C=C/C(=O)c2nc3ccccc3[nH]2)c1
2,0.000387,O=C(/C=C/c1cn(-c2ccccc2)nc1-c1ccc(Cl)cc1)c1nc2ccccc2[nH]1
3,0.0006,O=C(/C=C/c1cn(-c2ccccc2)nc1-c1ccccc1Cl)c1nc2ccccc2[nH]1
4,0.000535,O=C(/C=C/c1cn(-c2ccccc2)nc1-c1ccccc1)c1nc2ccccc2[nH]1

# Continued, compound first:
row,Compound,solubility (mole fraction)
1,COc1ccc(-c2nn(-c3ccccc3)cc2/C=C/C(=O)c2nc3ccccc3[nH]2)cc1,0.00179
2,COc1ccc(-c2nn(-c3ccccc3)cc2/C=C/C(=O)c2nc3ccccc3[nH]2)cc1OC,0.000395
3,O=C(/C=C/c1cn(-c2ccccc2)nc1-c1cccc([N+](=O)[O-])c1)c1nc2ccccc2[nH]1,0.000455

# Same assay, conditions: in n-pentanol, 323.15 K
row,solubility (mole fraction),Compound
1,0.000457,COc1cccc(-c2nn(-c3ccccc3)cc2/C=C/C(=O)c2nc3ccccc3[nH]2)c1
2,0.000423,O=C(/C=C/c1cn(-c2ccccc2)nc1-c1ccc(Cl)cc1)c1nc2ccccc2[nH]1
3,0.00069,O=C(/C=C/c1cn(-c2ccccc2)nc1-c1ccccc1Cl)c1nc2ccccc2[nH]1
4,0.000592,O=C(/C=C/c1cn(-c2ccccc2)nc1-c1ccccc1)c1nc2ccccc2[nH]1

# More lines, now with the values behind:
row,Compound,solubility (mole fraction)
1,COc1ccc(-c2nn(-c3ccccc3)cc2/C=C/C(=O)c2nc3ccccc3[nH]2)cc1,0.00185
2,COc1ccc(-c2nn(-c3ccccc3)cc2/C=C/C(=O)c2nc3ccccc3[nH]2)cc1OC,0.000412
3,O=C(/C=C/c1cn(-c2ccccc2)nc1-c1cccc([N+](=O)[O-])c1)c1nc2ccccc2[nH]1,0.000513

# Same assay, conditions: in n-pentanol, 328.15 K
row,solubility (mole fraction),Compound
1,0.000499,COc1cccc(-c2nn(-c3ccccc3)cc2/C=C/C(=O)c2nc3ccccc3[nH]2)c1
2,0.000442,O=C(/C=C/c1cn(-c2ccccc2)nc1-c1ccc(Cl)cc1)c1nc2ccccc2[nH]1
3,0.00074,O=C(/C=C/c1cn(-c2ccccc2)nc1-c1ccccc1Cl)c1nc2ccccc2[nH]1
4,0.000639,O=C(/C=C/c1cn(-c2ccccc2)nc1-c1ccccc1)c1nc2ccccc2[nH]1

# Continued, compound first:
row,Compound,solubility (mole fraction)
1,COc1ccc(-c2nn(-c3ccccc3)cc2/C=C/C(=O)c2nc3ccccc3[nH]2)cc1,0.00191
2,COc1ccc(-c2nn(-c3ccccc3)cc2/C=C/C(=O)c2nc3ccccc3[nH]2)cc1OC,0.00043
3,O=C(/C=C/c1cn(-c2ccccc2)nc1-c1cccc([N+](=O)[O-])c1)c1nc2ccccc2[nH]1,0.000557

# Same assay, conditions: in n-propanol, 298.15 K
row,solubility (mole fraction),Compound
1,0.000126,COc1cccc(-c2nn(-c3ccccc3)cc2/C=C/C(=O)c2nc3ccccc3[nH]2)c1
2,8.35e-05,O=C(/C=C/c1cn(-c2ccccc2)nc1-c1ccc(Cl)cc1)c1nc2ccccc2[nH]1
3,0.000157,O=C(/C=C/c1cn(-c2ccccc2)nc1-c1ccccc1Cl)c1nc2ccccc2[nH]1
4,0.000135,O=C(/C=C/c1cn(-c2ccccc2)nc1-c1ccccc1)c1nc2ccccc2[nH]1

# Further lines, the compound ahead of its results:
row,Compound,solubility (mole fraction)
1,COc1ccc(-c2nn(-c3ccccc3)cc2/C=C/C(=O)c2nc3ccccc3[nH]2)cc1,0.00049
2,COc1ccc(-c2nn(-c3ccccc3)cc2/C=C/C(=O)c2nc3ccccc3[nH]2)cc1OC,0.000125
3,O=C(/C=C/c1cn(-c2ccccc2)nc1-c1cccc([N+](=O)[O-])c1)c1nc2ccccc2[nH]1,0.000115

# Same assay, conditions: in n-propanol, 303.15 K
row,solubility (mole fraction),Compound
1,0.000145,COc1cccc(-c2nn(-c3ccccc3)cc2/C=C/C(=O)c2nc3ccccc3[nH]2)c1
2,0.000103,O=C(/C=C/c1cn(-c2ccccc2)nc1-c1ccc(Cl)cc1)c1nc2ccccc2[nH]1
3,0.000167,O=C(/C=C/c1cn(-c2ccccc2)nc1-c1ccccc1Cl)c1nc2ccccc2[nH]1
4,0.000152,O=C(/C=C/c1cn(-c2ccccc2)nc1-c1ccccc1)c1nc2ccccc2[nH]1

# Further lines, the compound ahead of its results:
row,Compound,solubility (mole fraction)
1,COc1ccc(-c2nn(-c3ccccc3)cc2/C=C/C(=O)c2nc3ccccc3[nH]2)cc1,0.00052
2,COc1ccc(-c2nn(-c3ccccc3)cc2/C=C/C(=O)c2nc3ccccc3[nH]2)cc1OC,0.00014
3,O=C(/C=C/c1cn(-c2ccccc2)nc1-c1cccc([N+](=O)[O-])c1)c1nc2ccccc2[nH]1,0.000135

# Same assay, conditions: in n-propanol, 308.15 K
row,solubility (mole fraction),Compound
1,0.000166,COc1cccc(-c2nn(-c3ccccc3)cc2/C=C/C(=O)c2nc3ccccc3[nH]2)c1
2,0.000121,O=C(/C=C/c1cn(-c2ccccc2)nc1-c1ccc(Cl)cc1)c1nc2ccccc2[nH]1
3,0.000177,O=C(/C=C/c1cn(-c2ccccc2)nc1-c1ccccc1Cl)c1nc2ccccc2[nH]1
4,0.000179,O=C(/C=C/c1cn(-c2ccccc2)nc1-c1ccccc1)c1nc2ccccc2[nH]1

# Further lines, the compound ahead of its results:
row,Compound,solubility (mole fraction)
1,COc1ccc(-c2nn(-c3ccccc3)cc2/C=C/C(=O)c2nc3ccccc3[nH]2)cc1,0.000541
2,COc1ccc(-c2nn(-c3ccccc3)cc2/C=C/C(=O)c2nc3ccccc3[nH]2)cc1OC,0.00015
3,O=C(/C=C/c1cn(-c2ccccc2)nc1-c1cccc([N+](=O)[O-])c1)c1nc2ccccc2[nH]1,0.000164

# Same assay, conditions: in n-propanol, 313.15 K
row,solubility (mole fraction),Compound
1,0.000187,COc1cccc(-c2nn(-c3ccccc3)cc2/C=C/C(=O)c2nc3ccccc3[nH]2)c1
2,0.000132,O=C(/C=C/c1cn(-c2ccccc2)nc1-c1ccc(Cl)cc1)c1nc2ccccc2[nH]1
3,0.000189,O=C(/C=C/c1cn(-c2ccccc2)nc1-c1ccccc1Cl)c1nc2ccccc2[nH]1
4,0.000189,O=C(/C=C/c1cn(-c2ccccc2)nc1-c1ccccc1)c1nc2ccccc2[nH]1

# Second part, the compound before the results:
row,Compound,solubility (mole fraction)
1,COc1ccc(-c2nn(-c3ccccc3)cc2/C=C/C(=O)c2nc3ccccc3[nH]2)cc1,0.000565
2,COc1ccc(-c2nn(-c3ccccc3)cc2/C=C/C(=O)c2nc3ccccc3[nH]2)cc1OC,0.000167
3,O=C(/C=C/c1cn(-c2ccccc2)nc1-c1cccc([N+](=O)[O-])c1)c1nc2ccccc2[nH]1,0.000175

# Same assay, conditions: in n-propanol, 318.15 K
row,solubility (mole fraction),Compound
1,0.000206,COc1cccc(-c2nn(-c3ccccc3)cc2/C=C/C(=O)c2nc3ccccc3[nH]2)c1
2,0.00015,O=C(/C=C/c1cn(-c2ccccc2)nc1-c1ccc(Cl)cc1)c1nc2ccccc2[nH]1
3,0.000205,O=C(/C=C/c1cn(-c2ccccc2)nc1-c1ccccc1Cl)c1nc2ccccc2[nH]1
4,0.000215,O=C(/C=C/c1cn(-c2ccccc2)nc1-c1ccccc1)c1nc2ccccc2[nH]1

# Further lines, the compound ahead of its results:
row,Compound,solubility (mole fraction)
1,COc1ccc(-c2nn(-c3ccccc3)cc2/C=C/C(=O)c2nc3ccccc3[nH]2)cc1,0.000586
2,COc1ccc(-c2nn(-c3ccccc3)cc2/C=C/C(=O)c2nc3ccccc3[nH]2)cc1OC,0.000185
3,O=C(/C=C/c1cn(-c2ccccc2)nc1-c1cccc([N+](=O)[O-])c1)c1nc2ccccc2[nH]1,0.000206

# Same assay, conditions: in n-propanol, 323.15 K
row,solubility (mole fraction),Compound
1,0.000231,COc1cccc(-c2nn(-c3ccccc3)cc2/C=C/C(=O)c2nc3ccccc3[nH]2)c1
2,0.000158,O=C(/C=C/c1cn(-c2ccccc2)nc1-c1ccc(Cl)cc1)c1nc2ccccc2[nH]1
3,0.00022,O=C(/C=C/c1cn(-c2ccccc2)nc1-c1ccccc1Cl)c1nc2ccccc2[nH]1
4,0.000226,O=C(/C=C/c1cn(-c2ccccc2)nc1-c1ccccc1)c1nc2ccccc2[nH]1

# The next lines start with the compound.
row,Compound,solubility (mole fraction)
1,COc1ccc(-c2nn(-c3ccccc3)cc2/C=C/C(=O)c2nc3ccccc3[nH]2)cc1,0.000615
2,COc1ccc(-c2nn(-c3ccccc3)cc2/C=C/C(=O)c2nc3ccccc3[nH]2)cc1OC,0.0002
3,O=C(/C=C/c1cn(-c2ccccc2)nc1-c1cccc([N+](=O)[O-])c1)c1nc2ccccc2[nH]1,0.000226

# Same assay, conditions: in n-propanol, 328.15 K
row,solubility (mole fraction),Compound
1,0.000245,COc1cccc(-c2nn(-c3ccccc3)cc2/C=C/C(=O)c2nc3ccccc3[nH]2)c1
2,0.000167,O=C(/C=C/c1cn(-c2ccccc2)nc1-c1ccc(Cl)cc1)c1nc2ccccc2[nH]1
3,0.000244,O=C(/C=C/c1cn(-c2ccccc2)nc1-c1ccccc1Cl)c1nc2ccccc2[nH]1
4,0.000255,O=C(/C=C/c1cn(-c2ccccc2)nc1-c1ccccc1)c1nc2ccccc2[nH]1

# The remaining lines, values behind:
row,Compound,solubility (mole fraction)
1,COc1ccc(-c2nn(-c3ccccc3)cc2/C=C/C(=O)c2nc3ccccc3[nH]2)cc1,0.000628
2,COc1ccc(-c2nn(-c3ccccc3)cc2/C=C/C(=O)c2nc3ccccc3[nH]2)cc1OC,0.00022
3,O=C(/C=C/c1cn(-c2ccccc2)nc1-c1cccc([N+](=O)[O-])c1)c1nc2ccccc2[nH]1,0.000251

# — BigSolDB 2.1
